The subject of assay [1] is NCI-H1975. Kind of assay: Cytotoxicity against human NCI-H1975 cells assessed as cell growth inhibition by CCK8 assay. For orientation: Tetrazolium assays rely on reduction of a dye to a coloured formazan, in cell work by metabolically active cells.
Assay [2] has as its system HepG2. Kind of assay: Cytotoxicity against human HepG2 cells assessed as cell growth inhibition by CCK8 assay.
Assay [3] has as its system Staphylococcus aureus. Kind of assay: Antibacterial activity against Staphylococcus aureus ATCC 6538 assessed as bacterial growth inhibition by broth microdilution method. It is filed as functional. Background: Dilution methods test growth across graded concentrations, often in twofold steps.
Assay [4] relates to Staphylococcus aureus. Kind of assay: Antibacterial activity against methicillin-resistant Staphylococcus aureus SC41993 assessed as bacterial growth inhibition by broth microdilution method. It is filed as functional.
For assay [5], the system named is Escherichia coli. Kind of assay: Antibacterial activity against Escherichia coli ATCC 25922 assessed as bacterial growth inhibition by broth microdilution method. It is filed as functional.
The subject of assay [6] is Bacillus subtilis. In words: Antibacterial activity against Bacillus subtilis BS01 assessed as bacterial growth inhibition by broth microdilution method. The format is functional.
Assay [7] relates to Streptococcus agalactiae. Kind of assay: Antibacterial activity against Streptococcus agalactiae ATCC 13813 assessed as bacterial growth inhibition by broth microdilution method. It is filed as functional.
Assay [8] deals with T1, Tyrosine-protein phosphatase non-receptor type 1 (Homo sapiens, UniProt P18031).
T1 sequence (P18031 whole entry): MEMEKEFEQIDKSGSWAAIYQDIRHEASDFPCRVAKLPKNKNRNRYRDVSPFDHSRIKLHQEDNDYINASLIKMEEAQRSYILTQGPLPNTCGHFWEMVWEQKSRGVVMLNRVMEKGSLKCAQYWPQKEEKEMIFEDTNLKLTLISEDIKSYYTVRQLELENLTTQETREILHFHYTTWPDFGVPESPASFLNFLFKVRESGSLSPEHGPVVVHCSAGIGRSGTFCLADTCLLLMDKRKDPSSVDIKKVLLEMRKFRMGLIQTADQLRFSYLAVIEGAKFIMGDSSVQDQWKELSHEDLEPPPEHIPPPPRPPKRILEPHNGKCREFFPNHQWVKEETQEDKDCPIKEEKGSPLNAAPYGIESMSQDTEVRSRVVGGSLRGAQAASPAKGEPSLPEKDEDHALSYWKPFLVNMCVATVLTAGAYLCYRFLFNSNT
In words: Inhibition of human PTP1B.

In assay [9] the target is T2, M-phase inducer phosphatase 2 (Homo sapiens, UniProt P30305).
T2 sequence (P30305 whole entry): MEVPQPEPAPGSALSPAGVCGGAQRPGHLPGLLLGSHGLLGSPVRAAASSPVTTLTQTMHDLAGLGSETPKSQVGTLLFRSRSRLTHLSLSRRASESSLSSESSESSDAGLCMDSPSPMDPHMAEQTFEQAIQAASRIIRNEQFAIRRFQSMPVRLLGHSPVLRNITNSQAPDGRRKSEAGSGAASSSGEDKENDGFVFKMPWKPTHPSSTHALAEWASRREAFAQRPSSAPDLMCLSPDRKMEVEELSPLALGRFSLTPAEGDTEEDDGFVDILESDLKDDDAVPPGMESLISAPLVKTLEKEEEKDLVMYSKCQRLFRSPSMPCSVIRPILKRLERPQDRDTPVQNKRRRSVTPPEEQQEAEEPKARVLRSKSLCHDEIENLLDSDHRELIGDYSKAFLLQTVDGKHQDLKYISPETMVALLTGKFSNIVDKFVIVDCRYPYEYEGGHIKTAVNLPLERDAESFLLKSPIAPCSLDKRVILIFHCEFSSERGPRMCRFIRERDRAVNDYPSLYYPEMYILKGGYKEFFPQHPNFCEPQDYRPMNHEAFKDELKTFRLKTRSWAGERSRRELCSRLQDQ
In words: Inhibition of human CDC25B.

Assay [10] addresses Receptor-type tyrosine-protein phosphatase F (Homo sapiens, UniProt P10586). In words: Inhibition of human LAR.
Assay [11] has as its target Receptor-type tyrosine-protein phosphatase S (Homo sapiens, UniProt Q13332). In words: Inhibition of human PTPsigma.
Assay [12] has as its target Dual specificity protein phosphatase 3 (Homo sapiens, UniProt P51452). In words: Inhibition of human VHR.
In assay [13] the test system is Bacillus amyloliquefaciens. Kind of assay: Antibacterial activity against Bacillus amyloliquefaciens GDMCC 60233 assessed as bacterial growth inhibition by broth microdilution method. The format is functional.
The subject of assay [14] is Streptococcus iniae. Kind of assay: Antibacterial activity against Streptococcus iniae SC41992 assessed as bacterial growth inhibition by broth microdilution method. It is filed as functional.

Each structure is given as a SMILES string. ≈ marks a conversion by molar mass, not a printed value.

In general, IC50 refers to the concentration that gives 50% inhibition. Broadly, the MIC is the least concentration at which growth counts as inhibited.

Chain of Receptor-type tyrosine-protein phosphatase F (P10586 whole entry): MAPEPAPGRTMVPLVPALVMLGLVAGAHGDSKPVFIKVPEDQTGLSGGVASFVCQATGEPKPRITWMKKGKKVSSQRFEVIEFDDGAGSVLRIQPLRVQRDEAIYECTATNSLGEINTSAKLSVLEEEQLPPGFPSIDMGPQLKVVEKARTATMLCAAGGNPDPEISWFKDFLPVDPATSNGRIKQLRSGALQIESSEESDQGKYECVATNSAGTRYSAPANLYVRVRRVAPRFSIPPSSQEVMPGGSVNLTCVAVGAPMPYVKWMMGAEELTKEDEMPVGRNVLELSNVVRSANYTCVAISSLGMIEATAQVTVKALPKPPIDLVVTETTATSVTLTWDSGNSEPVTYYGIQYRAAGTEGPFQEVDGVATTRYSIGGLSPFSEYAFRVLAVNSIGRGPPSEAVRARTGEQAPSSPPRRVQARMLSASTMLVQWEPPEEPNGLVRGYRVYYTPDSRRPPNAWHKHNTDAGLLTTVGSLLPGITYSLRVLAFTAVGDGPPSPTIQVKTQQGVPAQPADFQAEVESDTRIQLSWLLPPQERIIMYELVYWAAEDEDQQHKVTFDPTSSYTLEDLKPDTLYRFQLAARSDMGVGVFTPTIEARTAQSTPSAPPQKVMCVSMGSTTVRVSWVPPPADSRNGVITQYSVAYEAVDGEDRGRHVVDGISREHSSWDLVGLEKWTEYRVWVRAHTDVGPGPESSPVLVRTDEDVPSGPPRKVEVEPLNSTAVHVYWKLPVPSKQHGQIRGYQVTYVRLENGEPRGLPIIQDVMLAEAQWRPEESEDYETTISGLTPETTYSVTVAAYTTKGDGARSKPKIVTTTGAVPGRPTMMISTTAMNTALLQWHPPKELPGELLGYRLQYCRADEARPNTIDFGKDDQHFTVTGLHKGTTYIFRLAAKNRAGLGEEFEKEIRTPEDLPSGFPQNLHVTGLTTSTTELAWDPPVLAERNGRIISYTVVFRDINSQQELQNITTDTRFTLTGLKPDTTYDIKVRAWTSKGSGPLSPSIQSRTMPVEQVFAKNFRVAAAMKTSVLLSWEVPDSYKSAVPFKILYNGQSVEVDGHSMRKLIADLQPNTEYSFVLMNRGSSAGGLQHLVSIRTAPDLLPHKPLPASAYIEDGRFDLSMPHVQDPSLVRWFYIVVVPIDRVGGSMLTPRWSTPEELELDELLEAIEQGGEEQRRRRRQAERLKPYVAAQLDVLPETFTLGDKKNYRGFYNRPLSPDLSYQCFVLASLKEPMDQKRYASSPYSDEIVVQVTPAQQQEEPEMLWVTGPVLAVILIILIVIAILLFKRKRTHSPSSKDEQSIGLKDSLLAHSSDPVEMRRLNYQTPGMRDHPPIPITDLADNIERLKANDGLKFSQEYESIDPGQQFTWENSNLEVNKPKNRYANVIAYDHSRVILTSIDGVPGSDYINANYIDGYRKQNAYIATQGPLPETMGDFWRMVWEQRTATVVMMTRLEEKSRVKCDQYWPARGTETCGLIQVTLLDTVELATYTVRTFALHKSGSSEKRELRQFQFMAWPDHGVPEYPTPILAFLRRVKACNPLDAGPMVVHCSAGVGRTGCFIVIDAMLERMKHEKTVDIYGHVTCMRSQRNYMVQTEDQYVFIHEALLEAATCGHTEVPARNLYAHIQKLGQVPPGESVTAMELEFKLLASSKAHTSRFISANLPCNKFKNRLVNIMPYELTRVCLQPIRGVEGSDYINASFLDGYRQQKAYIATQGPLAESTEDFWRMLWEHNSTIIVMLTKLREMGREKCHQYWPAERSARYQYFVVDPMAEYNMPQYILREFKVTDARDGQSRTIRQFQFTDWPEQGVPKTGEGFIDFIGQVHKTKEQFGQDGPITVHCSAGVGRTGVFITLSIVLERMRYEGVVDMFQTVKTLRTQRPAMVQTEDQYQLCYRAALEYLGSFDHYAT
Chain of Dual specificity protein phosphatase 3 (P51452 whole entry): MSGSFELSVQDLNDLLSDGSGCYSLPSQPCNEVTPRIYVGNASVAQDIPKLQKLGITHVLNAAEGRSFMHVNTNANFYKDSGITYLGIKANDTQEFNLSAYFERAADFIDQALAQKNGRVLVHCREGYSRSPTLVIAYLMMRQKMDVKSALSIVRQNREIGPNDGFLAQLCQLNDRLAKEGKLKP
Chain of Receptor-type tyrosine-protein phosphatase S (Q13332 whole entry): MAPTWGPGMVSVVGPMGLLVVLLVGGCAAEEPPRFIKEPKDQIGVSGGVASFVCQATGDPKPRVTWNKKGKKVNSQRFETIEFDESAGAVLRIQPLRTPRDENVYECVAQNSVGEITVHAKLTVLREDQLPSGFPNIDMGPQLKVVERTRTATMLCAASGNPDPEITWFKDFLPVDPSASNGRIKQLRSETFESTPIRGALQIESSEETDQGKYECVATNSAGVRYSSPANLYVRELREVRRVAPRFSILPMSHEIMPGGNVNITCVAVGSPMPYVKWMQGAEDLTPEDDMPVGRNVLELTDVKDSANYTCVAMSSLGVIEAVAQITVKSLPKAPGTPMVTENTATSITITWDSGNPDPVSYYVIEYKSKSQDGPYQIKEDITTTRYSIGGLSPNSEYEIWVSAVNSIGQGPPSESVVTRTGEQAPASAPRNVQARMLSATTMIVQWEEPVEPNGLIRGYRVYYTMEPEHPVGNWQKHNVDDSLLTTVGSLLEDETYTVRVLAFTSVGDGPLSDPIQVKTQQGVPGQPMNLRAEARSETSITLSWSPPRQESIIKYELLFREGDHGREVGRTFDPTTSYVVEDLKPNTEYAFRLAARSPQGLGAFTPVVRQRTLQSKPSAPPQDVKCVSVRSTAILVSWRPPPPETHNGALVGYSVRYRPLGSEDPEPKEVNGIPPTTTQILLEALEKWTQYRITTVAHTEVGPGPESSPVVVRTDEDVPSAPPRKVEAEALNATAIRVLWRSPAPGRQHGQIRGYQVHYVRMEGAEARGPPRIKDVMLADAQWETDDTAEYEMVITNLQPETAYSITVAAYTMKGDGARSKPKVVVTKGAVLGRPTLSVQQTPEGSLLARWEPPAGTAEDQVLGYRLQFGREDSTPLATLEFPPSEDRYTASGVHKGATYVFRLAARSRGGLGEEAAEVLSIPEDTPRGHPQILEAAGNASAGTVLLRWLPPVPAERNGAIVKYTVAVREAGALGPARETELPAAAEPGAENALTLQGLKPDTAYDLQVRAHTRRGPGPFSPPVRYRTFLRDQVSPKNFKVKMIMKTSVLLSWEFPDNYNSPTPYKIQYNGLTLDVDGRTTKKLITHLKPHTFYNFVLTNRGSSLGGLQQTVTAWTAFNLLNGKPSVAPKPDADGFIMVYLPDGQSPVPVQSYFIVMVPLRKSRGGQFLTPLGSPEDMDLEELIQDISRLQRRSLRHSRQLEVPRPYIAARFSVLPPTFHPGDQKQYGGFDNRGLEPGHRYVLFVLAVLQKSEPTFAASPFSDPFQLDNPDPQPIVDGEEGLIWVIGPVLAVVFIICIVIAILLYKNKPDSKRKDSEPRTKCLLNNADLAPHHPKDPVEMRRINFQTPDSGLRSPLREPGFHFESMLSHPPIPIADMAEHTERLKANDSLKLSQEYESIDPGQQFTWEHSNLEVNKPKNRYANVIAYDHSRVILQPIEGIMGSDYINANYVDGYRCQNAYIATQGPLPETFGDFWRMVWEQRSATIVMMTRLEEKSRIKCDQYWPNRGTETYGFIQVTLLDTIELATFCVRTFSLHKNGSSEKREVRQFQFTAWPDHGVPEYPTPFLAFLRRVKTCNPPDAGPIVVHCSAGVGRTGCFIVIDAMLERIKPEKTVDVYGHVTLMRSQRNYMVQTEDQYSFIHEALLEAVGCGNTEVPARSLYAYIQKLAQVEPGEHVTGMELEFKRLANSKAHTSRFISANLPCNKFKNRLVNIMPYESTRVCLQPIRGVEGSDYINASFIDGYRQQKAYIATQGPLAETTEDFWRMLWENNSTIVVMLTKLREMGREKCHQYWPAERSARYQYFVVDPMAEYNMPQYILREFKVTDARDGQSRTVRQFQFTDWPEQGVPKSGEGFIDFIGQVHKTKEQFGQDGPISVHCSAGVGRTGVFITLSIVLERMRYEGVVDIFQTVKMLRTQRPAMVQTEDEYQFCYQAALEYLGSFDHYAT

`C=C/C(C)=C/[C@]1(C)C=C(C)[C@H]2[C@@H]3C[C@H](C)C[C@H](C)[C@H]3[C@H]3Oc4ccc(cc4)C[C@@H]4C(=O)NC(=O)[C@H]4C(=O)[C@@H]1[C@@H]32`: the IC50 is 67 µM in assay [1] and > 80 µM in assay [2]. The MIC in [3] was > 100 µg/mL; in assay [4], > 100 µg/mL; in [5], 100 µg/mL (≈ 189 µM); in assay [6] it was 100 µg/mL (≈ 189 µM); in assay [7], 50 µg/mL (≈ 94.7 µM).

As for `C=C/C(C)=C\[C@]1(C)C=C(C)[C@H]2[C@@H]3C[C@H](C)C[C@H](C)[C@H]3[C@H]3Oc4ccc(cc4)C[C@@H]4C(=O)NC(=O)[C@H]4C(=O)[C@@H]1[C@@H]32`, the IC50 in assay [1] came to 35 µM; in assay [2] it was 73 µM. The minimum inhibitory concentration (MIC) in [3] is > 100 µg/mL; in assay [4], > 100 µg/mL; in assay [5], 100 µg/mL (≈ 189 µM); in [6], 100 µg/mL (≈ 189 µM); in assay [7], 50 µg/mL (≈ 94.7 µM).

As for `CC1=C[C@@]2(C)C(=C(C)[C@H]3[C@@H]4C[C@H](CO)C[C@H](C)[C@H]4[C@H]4Oc5ccc(cc5)C[C@@H]5C(=O)NC(=O)[C@H]5C(=O)[C@H]2[C@@H]43)[C@H]1C`, the IC50 in assay [8] is > 200 µM; in [9] it was > 200 µM; in assay [10], > 200 µM; in assay [11], > 200 µM; in assay [12], > 200 µM; in assay [1] it was 43 µM. Further, the IC50 in assay [2] is > 80 µM. In addition, the MIC in [3] and in [4] was > 100 µg/mL in each case.

In the case of `CC1=C[C@@]2(C)[C@@H]3C(=O)[C@@]45C(=O)N[C@@](O)(Cc6ccc(cc6)O[C@@H]6[C@H]7[C@@H](C[C@H](CO)C[C@@H]7C)[C@H]1[C@H]63)[C@H]4CC=C(C)[C@@H]25`, the 50% inhibitory concentration (IC50) in assay [8] is > 200 µM; in assay [9], > 200 µM; in assay [10], > 200 µM; in assay [11], > 200 µM; in assay [12] it was > 200 µM; in assay [1], 58 µM. Moreover, the half-inhibitory concentration (IC50) in assay [2] was > 80 µM. Moreover, the MIC was > 100 µg/mL in assay [3]; > 100 µg/mL in assay [4]; 100 µg/mL (≈ 184 µM) in [5]; 100 µg/mL (≈ 184 µM) in assay [6]; > 100 µg/mL in assay [7]; > 100 µg/mL in assay [13]. The MIC in [14] was 100 µg/mL (≈ 184 µM).

For the compound `CC1=C2[C@@H](C)[C@@]3(C)O[C@H]3[C@]2(C)[C@H]2C(=O)[C@]34O[C@H]3[C@](O)(Cc3ccc(cc3)O[C@@H]3[C@H]5[C@@H](C[C@H](C)C[C@@H]5C)[C@H]1[C@H]32)NC4=O`, the IC50 in assay [8] was 42 µM; in [9], > 200 µM; in [10], > 200 µM; in assay [12] it was > 200 µM; in assay [1], 33 µM; in [2], 67 µM. Besides, the MIC in assay [3] is 13 µg/mL (≈ 23.2 µM); in assay [4], > 100 µg/mL; in assay [5], 100 µg/mL (≈ 179 µM); in assay [6], 100 µg/mL (≈ 179 µM); in assay [7], 100 µg/mL (≈ 179 µM); in assay [13] it was 100 µg/mL (≈ 179 µM). Further, the minimum inhibitory concentration (MIC) in assay [14] is 100 µg/mL (≈ 179 µM).
